# What was measured:
# Test in all cases: relative viability (nuclei count vs DMSO), 5 days (fraction); higher = more cells survive
# 201T = test system: 201T
# Outline: (§1)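 One day after seeding in 1536-well plates, lung cancer cell lines were dosed by pin tool. Dosing was either single-drug or a fixed anchor-drug dose plus five library-drug doses (not always all listed) in √10 steps. After 5 days, nuclei were stained in one fix-and-stain step and counted on 4× images, and relative viability is the nuclei count of treated wells over that of vehicle wells, given as the median of duplicate plates.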
# BEN = test system: BEN
# Outline: as §1
# CAL-12T = test system: CAL-12T
# Outline: as §1
# HCC-78 = test system: HCC-78
# Outline: as §1
# HOP-62 = test system: HOP-62
# Outline: as §1
# LCLC-97TM1 = test system: LCLC-97TM1
# Outline: as §1
# LOU-NH91 = test system: LOU-NH91
# Outline: as §1
# NCI-H1355 = test system: NCI-H1355
# Outline: as §1
# NCI-H1395 = test system: NCI-H1395
# Outline: as §1
# NCI-H1651 = test system: NCI-H1651
# Outline: as §1
# NCI-H1793 = test system: NCI-H1793
# Outline: as §1
# NCI-H1915 = test system: NCI-H1915
# Outline: as §1
# NCI-H1944 = test system: NCI-H1944
# Outline: as §1
# NCI-H2126 = test system: NCI-H2126
# Outline: as §1
# NCI-H2347 = test system: NCI-H2347
# Outline: as §1
# NCI-H3122 = test system: NCI-H3122
# Outline: as §1
# NCI-H322M = test system: NCI-H322M
# Outline: as §1
# NCI-H441 = test system: NCI-H441
# Outline: as §1
# NCI-H650 = test system: NCI-H650
# Outline: as §1
# NCI-H838 = test system: NCI-H838
# Outline: as §1
# SK-LU-1 = test system: SK-LU-1
# Outline: as §1
# SW 1573 = test system: SW 1573
# Outline: as §1
smiles,measurement,setting,value
CN1CCN(CCOc2cc(OC3CCOCC3)c3c(Nc4c(Cl)ccc5c4OCO5)ncnc3c2)CC1 [Saracatinib] + CC(=O)Nc1cccc(-n2c(=O)n(C3CC3)c(=O)c3c(Nc4ccc(I)cc4F)n(C)c(=O)c(C)c32)c1 [Trametinib] (partner 0.02 µM),relative viability,201T; first compound 0.02 µM,0.726
same,relative viability,201T; first compound 0.2 µM,0.685
same,relative viability,201T; first compound 0.6325 µM,0.65
same,relative viability,201T; first compound 2 µM,0.615
same,relative viability,BEN; first compound 0.02 µM,1.04
same,relative viability,BEN; first compound 0.2 µM,1.15
same,relative viability,BEN; first compound 0.6325 µM,1.17
same,relative viability,BEN; first compound 2 µM,1.13
same,relative viability,CAL-12T; first compound 0.02 µM,0.394
same,relative viability,CAL-12T; first compound 0.2 µM,0.373
same,relative viability,CAL-12T; first compound 0.6325 µM,0.475
same,relative viability,CAL-12T; first compound 2 µM,0.323
same,relative viability,HCC-78; first compound 0.02 µM,0.569
same,relative viability,HCC-78; first compound 0.6325 µM,0.869
same,relative viability,HCC-78; first compound 2 µM,0.523
same,relative viability,HOP-62; first compound 0.02 µM,0.412
same,relative viability,HOP-62; first compound 0.2 µM,0.455
same,relative viability,HOP-62; first compound 0.6325 µM,0.441
same,relative viability,HOP-62; first compound 2 µM,0.398
same,relative viability,LCLC-97TM1; first compound 0.02 µM,0.222
same,relative viability,LCLC-97TM1; first compound 0.2 µM,0.21
same,relative viability,LCLC-97TM1; first compound 0.6325 µM,0.223
same,relative viability,LCLC-97TM1; first compound 2 µM,0.275
same,relative viability,LOU-NH91; first compound 0.02 µM,0.731
same,relative viability,LOU-NH91; first compound 0.2 µM,0.694
same,relative viability,LOU-NH91; first compound 0.6325 µM,0.758
same,relative viability,LOU-NH91; first compound 2 µM,0.636
same,relative viability,NCI-H1355; first compound 0.02 µM,0.437
same,relative viability,NCI-H1355; first compound 0.2 µM,0.456
same,relative viability,NCI-H1355; first compound 0.6325 µM,0.439
same,relative viability,NCI-H1355; first compound 2 µM,0.441
same,relative viability,NCI-H1395; first compound 0.02 µM,1.07
same,relative viability,NCI-H1395; first compound 0.2 µM,0.995
same,relative viability,NCI-H1395; first compound 0.6325 µM,0.953
same,relative viability,NCI-H1395; first compound 2 µM,0.905
same,relative viability,NCI-H1651; first compound 0.02 µM,0.837
same,relative viability,NCI-H1651; first compound 0.2 µM,0.593
same,relative viability,NCI-H1651; first compound 0.6325 µM,0.907
same,relative viability,NCI-H1651; first compound 2 µM,0.877
same,relative viability,NCI-H1793; first compound 0.02 µM,0.439
same,relative viability,NCI-H1793; first compound 0.2 µM,0.395
same,relative viability,NCI-H1793; first compound 0.6325 µM,0.513
same,relative viability,NCI-H1793; first compound 2 µM,0.475
same,relative viability,NCI-H1915; first compound 0.02 µM,0.305
same,relative viability,NCI-H1915; first compound 0.2 µM,0.292
same,relative viability,NCI-H1915; first compound 0.6325 µM,0.251
same,relative viability,NCI-H1915; first compound 2 µM,0.265
same,relative viability,NCI-H1944; first compound 0.02 µM,0.421
same,relative viability,NCI-H1944; first compound 0.2 µM,0.391
same,relative viability,NCI-H1944; first compound 0.6325 µM,0.417
same,relative viability,NCI-H1944; first compound 2 µM,0.308
same,relative viability,NCI-H2126; first compound 0.02 µM,0.592
same,relative viability,NCI-H2126; first compound 0.2 µM,0.509
same,relative viability,NCI-H2126; first compound 0.6325 µM,0.551
same,relative viability,NCI-H2126; first compound 2 µM,0.517
same,relative viability,NCI-H2347; first compound 0.02 µM,0.265
same,relative viability,NCI-H2347; first compound 0.2 µM,0.265
same,relative viability,NCI-H2347; first compound 0.6325 µM,0.379
same,relative viability,NCI-H2347; first compound 2 µM,0.277
same,relative viability,NCI-H3122; first compound 0.02 µM,0.212
same,relative viability,NCI-H3122; first compound 0.2 µM,0.163
same,relative viability,NCI-H3122; first compound 0.6325 µM,0.154
same,relative viability,NCI-H3122; first compound 2 µM,0.155
same,relative viability,NCI-H322M; first compound 0.02 µM,0.529
same,relative viability,NCI-H322M; first compound 0.2 µM,0.449
same,relative viability,NCI-H322M; first compound 0.6325 µM,0.582
same,relative viability,NCI-H322M; first compound 2 µM,0.357
same,relative viability,NCI-H441; first compound 0.02 µM,0.514
same,relative viability,NCI-H441; first compound 0.2 µM,0.487
same,relative viability,NCI-H441; first compound 0.6325 µM,0.507
same,relative viability,NCI-H441; first compound 2 µM,0.339
same,relative viability,NCI-H650; first compound 0.02 µM,0.993
same,relative viability,NCI-H650; first compound 0.2 µM,0.877
same,relative viability,NCI-H650; first compound 0.6325 µM,1.03
same,relative viability,NCI-H650; first compound 2 µM,0.92
same,relative viability,NCI-H838; first compound 0.02 µM,0.54
same,relative viability,NCI-H838; first compound 0.2 µM,0.497
same,relative viability,NCI-H838; first compound 0.6325 µM,0.47
same,relative viability,NCI-H838; first compound 2 µM,0.425
same,relative viability,SK-LU-1; first compound 0.02 µM,0.51
same,relative viability,SK-LU-1; first compound 0.2 µM,0.364
same,relative viability,SK-LU-1; first compound 0.6325 µM,0.375
same,relative viability,SK-LU-1; first compound 2 µM,0.301
same,relative viability,SW 1573; first compound 0.02 µM,0.507
same,relative viability,SW 1573; first compound 0.2 µM,0.598
same,relative viability,SW 1573; first compound 0.6325 µM,0.457
same,relative viability,SW 1573; first compound 2 µM,0.364

# Reference: the supplement of paper PMC10307832
